Key:
[1] = test system: Mycobacterium tuberculosis Erdman (autoluminescent); experiment: total FIC50 (Loewe) at 50% inhibition, three-drug combination (log2); higher = more antagonistic
Protocol: (§1)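 DiaMOND equipotent three-drug combination dose responses (10 doses, 1.5- or 2-fold spacing, centred on IC90) against autoluminescent M. tuberculosis Erdman in 8 in vitro models. Read-out is OD600, or luminescence for the intracellular and dormancy models, normalised to untreated wells. Hill-fit Einf, AUC25 and GRinf are potency metrics; FIC50 and FIC90 are total Loewe fractional inhibitory concentrations as log2 (negative = synergy).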

[2] = test system: Mycobacterium tuberculosis Erdman (autoluminescent); experiment: Einf, fitted maximum growth inhibition of three-drug combination (fraction); higher = stronger maximal inhibition
Protocol: as §1

[3] = test system: Mycobacterium tuberculosis Erdman (autoluminescent); experiment: AUC25, normalised area under dose response up to IC25 (three-drug combination) (fraction (0-1)); higher = more potent at low dose
Protocol: as §1

[4] = test system: Mycobacterium tuberculosis Erdman (autoluminescent); experiment: GRinf, maximum normalised growth rate inhibition (three-drug combination) (unitless (-1 to 1)); higher = less effect (negative = killing)
Protocol: as §1

[5] = test system: Mycobacterium tuberculosis Erdman (autoluminescent); experiment: total FIC90 (Loewe) at 90% inhibition, three-drug combination (log2); higher = more antagonistic
Protocol: as §1

CC(C)/N=c1\cc2n(-c3ccc(Cl)cc3)c3ccccc3nc-2cc1Nc1ccc(Cl)cc1 [clofazimine] + NNC(=O)c1ccncc1 [isoniazid] + CO[C@H]1/C=C/O[C@@]2(C)Oc3c(C)c(O)c4c(O)c(c(/C=N/N5CCN(C)CC5)c(O)c4c3C2=O)NC(=O)/C(C)=C\C=C\[C@H](C)[C@H](O)[C@@H](C)[C@@H](O)[C@@H](C)[C@H](OC(C)=O)[C@@H]1C [rifampicin]
Details	AUC25, [3]	Einf, [2]	GRinf, [4]	total FIC50, [1]	total FIC90, [5]
in vitro model: acidic pH 5.7, time point: constant (~7 days, model-specific)	0.0827	0.859	-0.00905	0.524	–
in vitro model: acidic pH 5.7, time point: terminal (~4-5 doublings, model-specific)	0.0711	0.977	-0.102	0.542	0.223
in vitro model: intracellular J774, time point: constant = terminal	–	0.983	-0.28	–	0.112

Details	AUC25, [3]	Einf, [2]	GRinf, [4]	total FIC50, [1]	total FIC90, [5]
in vitro model: butyrate, time point: constant (~7 days, model-specific)	0.107	0.958	-0.146	0.388	0.605
in vitro model: butyrate, time point: terminal (~4-5 doublings, model-specific)	0.082	0.978	-0.104	0.318	0.248
in vitro model: cholesterol 0.05 mM, time point: constant (~7 days, model-specific)	0.102	0.662	0.064	0.74	–
in vitro model: cholesterol 0.05 mM, time point: terminal (~4-5 doublings, model-specific)	0.0787	0.896	0.0504	1.25	-0.29
in vitro model: cholesterol-high 0.2 mM, time point: constant (~7 days, model-specific)	0.0653	0.891	-0.205	0.286	–
in vitro model: cholesterol-high 0.2 mM, time point: terminal (~4-5 doublings, model-specific)	0.0563	0.996	-0.68	0.929	0.197
in vitro model: dormancy (butyrate + nitrate, low O2), time point: constant (~7 days, model-specific)	0.0885	0.876	0.253	-0.0155	-0.596
in vitro model: dormancy (butyrate + nitrate, low O2), time point: terminal (~4-5 doublings, model-specific)	0.0839	0.988	-0.19	-0.403	0.28
in vitro model: standard 7H9 glycerol, time point: constant = terminal	0.112	0.945	-0.018	-0.19	0.0305
in vitro model: valerate, time point: constant (~7 days, model-specific)	0.112	0.866	-0.116	0.565	–
in vitro model: valerate, time point: terminal (~4-5 doublings, model-specific)	0.0604	0.918	0.0831	0.286	0.147

CC(C)/N=c1\cc2n(-c3ccc(Cl)cc3)c3ccccc3nc-2cc1Nc1ccc(Cl)cc1 [clofazimine] + NNC(=O)c1ccncc1 [isoniazid] + COc1c(N2C[C@@H]3CCCN[C@@H]3C2)c(F)cc2c(=O)c(C(=O)O)cn(C3CC3)c12 [moxifloxacin]
Details	AUC25, [3]	Einf, [2]	GRinf, [4]	total FIC50, [1]	total FIC90, [5]
in vitro model: acidic pH 5.7, time point: constant (~7 days, model-specific)	0.148	0.438	0.301	–	–
in vitro model: acidic pH 5.7, time point: terminal (~4-5 doublings, model-specific)	0.0974	0.923	-0.33	0.581	0.708
in vitro model: intracellular J774, time point: constant = terminal	–	1	-0.424	–	0.642

Details	AUC25, [3]	Einf, [2]	GRinf, [4]	total FIC50, [1]	total FIC90, [5]
in vitro model: butyrate, time point: constant (~7 days, model-specific)	0.0935	0.949	-0.0926	0.57	1.04
in vitro model: butyrate, time point: terminal (~4-5 doublings, model-specific)	0.0779	0.981	-0.0848	0.531	0.768
in vitro model: cholesterol 0.05 mM, time point: constant (~7 days, model-specific)	0.131	0.707	-0.174	0.411	–
in vitro model: cholesterol 0.05 mM, time point: terminal (~4-5 doublings, model-specific)	0.119	0.919	-0.228	0.344	0.0839
in vitro model: cholesterol-high 0.2 mM, time point: constant (~7 days, model-specific)	0.102	0.943	-0.266	0.253	0.868
in vitro model: cholesterol-high 0.2 mM, time point: terminal (~4-5 doublings, model-specific)	0.0858	1	-0.61	0.464	0.399
in vitro model: dormancy (butyrate + nitrate, low O2), time point: constant (~7 days, model-specific)	0.094	0.929	0.151	0.252	-0.33
in vitro model: dormancy (butyrate + nitrate, low O2), time point: terminal (~4-5 doublings, model-specific)	0.0919	0.988	-0.177	0.0561	1.09
in vitro model: standard 7H9 glycerol, time point: constant = terminal	0.0829	0.977	-0.209	0.374	0.44
in vitro model: valerate, time point: constant (~7 days, model-specific)	0.079	0.84	0.0938	0.474	–
in vitro model: valerate, time point: terminal (~4-5 doublings, model-specific)	0.0672	0.917	0.0935	0.256	0.99

CC(C)/N=c1\cc2n(-c3ccc(Cl)cc3)c3ccccc3nc-2cc1Nc1ccc(Cl)cc1 [clofazimine] + NNC(=O)c1ccncc1 [isoniazid] + NC(=O)c1cnccn1 [pyrazinamide]
Details	AUC25, [3]	Einf, [2]	GRinf, [4]	total FIC50, [1]	total FIC90, [5]
in vitro model: acidic pH 5.7, time point: constant (~7 days, model-specific)	0.105	0.819	-0.294	0.25	–
in vitro model: acidic pH 5.7, time point: terminal (~4-5 doublings, model-specific)	0.0972	0.977	-0.35	-0.0265	-0.409
in vitro model: intracellular J774, time point: constant = terminal	–	0.964	-0.705	–	0.267

Details	AUC25, [3]	Einf, [2]	GRinf, [4]	total FIC50, [1]	total FIC90, [5]
in vitro model: butyrate, time point: constant (~7 days, model-specific)	0.112	0.953	-0.112	-0.201	0.915
in vitro model: butyrate, time point: terminal (~4-5 doublings, model-specific)	0.0804	0.968	-0.0686	-0.0738	0.168
in vitro model: cholesterol 0.05 mM, time point: constant (~7 days, model-specific)	0.131	0.74	-0.217	–	–
in vitro model: cholesterol 0.05 mM, time point: terminal (~4-5 doublings, model-specific)	0.132	0.924	-0.252	0.486	–
in vitro model: cholesterol-high 0.2 mM, time point: constant (~7 days, model-specific)	0.0931	0.938	-0.335	0.341	–
in vitro model: cholesterol-high 0.2 mM, time point: terminal (~4-5 doublings, model-specific)	0.0853	0.997	-0.517	0.634	0.384
in vitro model: dormancy (butyrate + nitrate, low O2), time point: constant (~7 days, model-specific)	0.0828	0.88	0.259	-0.675	-0.607
in vitro model: dormancy (butyrate + nitrate, low O2), time point: terminal (~4-5 doublings, model-specific)	0.0727	0.986	-0.174	-0.286	0.161
in vitro model: standard 7H9 glycerol, time point: constant = terminal	0.114	0.942	-0.135	0.447	–
in vitro model: valerate, time point: constant (~7 days, model-specific)	0.119	0.86	0.022	-0.0616	–
in vitro model: valerate, time point: terminal (~4-5 doublings, model-specific)	0.0674	0.933	0.0539	0.187	0.474
